In patent US20110262977A1, “PROCESS FOR PRODUCTION OF OPTICALLY ACTIVE AMINE DERIVATIVE” (Daicel Chemical Industries, Ltd., priority 2008, published 2011):

Assays:
[1] = system: imine reductase derived from Streptomyces sp. GF3546; test: Substrate specificity of imine reductase: NADPH/NADH-dependent imine-reducing activity (decrease in absorbance at 340 nm); format: biochemical
Description: A reaction mixture containing the enzyme, 100 mM potassium phosphate buffer (pH 7.0), 0.2 mM NADPH, and 10 mM 2-methyl-1-pyrrolin was incubated at 30° C. The reaction mixture was assayed to determine the decrease in absorbance at 340 nm due to the decrease of NADPH. The amount of enzyme that catalyzes the decrease of 1 μmol of NADPH per minute was defined as 1 U.
(§1) The enzyme prepared as described in Example 4 was incubated with various imine compounds.

[2] = system: imine reductase derived from Streptomyces sp. GF3546; test: Substrate specificity of imine reductase: NADP+-dependent amine-oxidizing activity (increase in absorbance at 340 nm); format: biochemical; conditions: oxidation, substrate 10 mM, coenzyme NADP+
Description: A reaction mixture containing 100 mM glycine/potassium chloride/potassium hydroxide buffer 10.5, 2.5 mM NADP^+, 10 mM (S)-2-methylpyrrolidine, and the enzyme was incubated at 30° C. The reaction mixture was assayed to determine the increase in absorbance at 340 nm due to the increase of NADPH. The amount of enzyme that catalyzes the increase of 1 μmol of NADPH per minute was defined as 1 U.
as §1

[3] = substrate 10 mM, coenzyme NADPH, activity of reducing 2-methyl-1-pyrroline taken as 100
[4] = first % column, activity of reducing 2-methyl-1-pyrroline taken as 100
[5] = second % column, (S)-2-methylpyrrolidine = 100.0

| Compound | Relative activity [1, 3] [%] | Relative activity [2, 4] [%] | Relative activity [2, 5] [%] | other results |
| --- | --- | --- | --- | --- |
| C(=NCc1ccccc1)c1ccccc1 [N-Benzylidenebenzylamine] | 20.9 |  |  |  |
| COc1cc2c(cc1OC)C(C)=NCC2 [1-Methyl-6,7-dimethoxy-3,4-dihydroisoquinoline] |  |  |  | Relative activity ([1]; substrate 0.05 mM, coenzyme NADPH, activity of reducing 2-methyl-1-pyrroline taken as 100): 8.9% |
| CC1=NCCC1 [2-Methyl-1-pyrroline] | 100.0 |  |  | Relative activity ([1]; substrate 10 mM, coenzyme NADH, activity of reducing 2-methyl-1-pyrroline (NADPH) taken as 100): 0.0% |
| CC(=Nc1ccccc1)c1ccccc1 (mixture of isomers) [N-((E/Z)-N-(1-phenylethylidene)aniline] | 5.3 |  |  |  |
| C[C@H]1CCCN1 [(S)-2-Methylpyrrolidine] |  | 44.1 | 100.0 |  |
| C[C@@H]1CCCN1 [(R)-2-Methylpyrrolidine] |  | 7.7 | 17.4 |  |
